# From PubChem BioAssay (NCI)
#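 Tested at 5 concentrations; 48 h exposure; 96-well plates; endpoints linearly interpolated, else capped at highest concentration. TGI: total growth inhibition.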
# Columns and labels:
# Assay in all cases: growth of human tumour cells (NCI), 48 h
# HS 578T breast = test system: HS 578T breast
# MDA-MB-231 breast = test system: MDA-MB-231 breast
# M14 melanoma = test system: M14 melanoma
# KM12 colon = test system: KM12 colon
# SR leukemia = test system: SR leukemia
# DMS 114 small cell lung = test system: DMS 114 small cell lung
# SNB-75 CNS = test system: SNB-75 CNS
# MDA-N = test system: MDA-N
# SK-MEL-28 melanoma = test system: SK-MEL-28 melanoma
# SN12C renal = test system: SN12C renal
# HCT-116 colon = test system: HCT-116 colon
# HOP-62 NSCLC = test system: HOP-62 NSCLC
# SF-539 CNS = test system: SF-539 CNS
# RXF 393 renal = test system: RXF 393 renal
# MOLT-4 leukemia = test system: MOLT-4 leukemia
# BT-549 breast = test system: BT-549 breast
# SK-MEL-5 melanoma = test system: SK-MEL-5 melanoma
# IGROV1 ovarian = test system: IGROV1 ovarian
# OVCAR-4 ovarian = test system: OVCAR-4 ovarian
# ACHN renal = test system: ACHN renal
# HL-60(TB) leukemia = test system: HL-60(TB) leukemia
# UACC-257 melanoma = test system: UACC-257 melanoma
# SK-MEL-2 melanoma = test system: SK-MEL-2 melanoma
# OVCAR-3 ovarian = test system: OVCAR-3 ovarian
# NCI-H522 lung = test system: NCI-H522 lung
# HCC-2998 colon = test system: HCC-2998 colon
# MDA-MB-435 = test system: MDA-MB-435
# RPMI-8226 leukemia = test system: RPMI-8226 leukemia
# U251 CNS = test system: U251 CNS
# OVCAR-5 ovarian = test system: OVCAR-5 ovarian
# CCRF-CEM leukemia = test system: CCRF-CEM leukemia
# T-47D breast = test system: T-47D breast
# DMS 273 small cell lung = test system: DMS 273 small cell lung
# NCI-H23 lung = test system: NCI-H23 lung
# DU-145 prostate = test system: DU-145 prostate
# SNB-78 CNS = test system: SNB-78 CNS
# TK-10 renal = test system: TK-10 renal
# SNB-19 CNS = test system: SNB-19 CNS
# LXFL 529 NSCLC = test system: LXFL 529 NSCLC
# SF-295 CNS = test system: SF-295 CNS
# COLO 205 colon = test system: COLO 205 colon
# HCT-15 colon = test system: HCT-15 colon
# M19-MEL melanoma = test system: M19-MEL melanoma
# HOP-92 NSCLC = test system: HOP-92 NSCLC
# KM20L2 colon = test system: KM20L2 colon
# OVCAR-8 ovarian = test system: OVCAR-8 ovarian
# A549 NSCLC = test system: A549 NSCLC
# RXF-631 renal = test system: RXF-631 renal
# HOP-18 NSCLC = test system: HOP-18 NSCLC
# CAKI-1 renal = test system: CAKI-1 renal
# UO-31 renal = test system: UO-31 renal
# NCI-H460 lung = test system: NCI-H460 lung
# XF 498 CNS = test system: XF 498 CNS
# EKVX NSCLC = test system: EKVX NSCLC
# 786-0 renal = test system: 786-0 renal
# SW-620 colon = test system: SW-620 colon
# NCI-H226 lung = test system: NCI-H226 lung
# SK-OV-3 ovarian = test system: SK-OV-3 ovarian
# UACC-62 melanoma = test system: UACC-62 melanoma
# MALME-3M melanoma = test system: MALME-3M melanoma
# A498 renal = test system: A498 renal
# K-562 leukemia = test system: K-562 leukemia
# LOX IMVI melanoma = test system: LOX IMVI melanoma
# PC-3 prostate = test system: PC-3 prostate
# SF-268 CNS = test system: SF-268 CNS
# HT29 colon = test system: HT29 colon
# DLD-1 colon = test system: DLD-1 colon
structure (smiles),measurement,setting,value
C=C1C(=O)OC2CC(C)C3C=CC(=O)C3CC12 (stereo unspecified),TGI,HS 578T breast,6.53 µM
same,TGI,MDA-MB-231 breast,3.74 µM
same,TGI,M14 melanoma,3.46 µM
same,TGI,KM12 colon,18.9 µM
same,TGI,SR leukemia,4.53 µM
same,TGI,DMS 114 small cell lung,6.22 µM
same,TGI,SNB-75 CNS,18.5 µM
same,TGI,MDA-N,5.73 µM
same,TGI,SK-MEL-28 melanoma,4.16 µM
same,TGI,SN12C renal,5.19 µM
same,TGI,HCT-116 colon,2.7 µM
same,TGI,HOP-62 NSCLC,31.8 µM
same,TGI,SF-539 CNS,4.92 µM
same,TGI,RXF 393 renal,3.03 µM
same,TGI,MOLT-4 leukemia,4.68 µM
same,TGI,BT-549 breast,9.94 µM
same,TGI,SK-MEL-5 melanoma,6.04 µM
same,TGI,IGROV1 ovarian,13.2 µM
same,TGI,OVCAR-4 ovarian,9.68 µM
same,TGI,ACHN renal,8.21 µM
same,TGI,HL-60(TB) leukemia,4.95 µM
same,TGI,UACC-257 melanoma,4.9 µM
same,TGI,SK-MEL-2 melanoma,4.49 µM
same,TGI,OVCAR-3 ovarian,13.6 µM
same,TGI,NCI-H522 lung,1.95 µM
same,TGI,HCC-2998 colon,16.5 µM
same,TGI,MDA-MB-435,12.4 µM
same,TGI,RPMI-8226 leukemia,7.03 µM
same,TGI,U251 CNS,20.6 µM
same,TGI,OVCAR-5 ovarian,10.4 µM
same,TGI,CCRF-CEM leukemia,5.14 µM
same,TGI,T-47D breast,5.77 µM
same,TGI,DMS 273 small cell lung,12.2 µM
same,TGI,NCI-H23 lung,4.03 µM
same,TGI,DU-145 prostate,21.7 µM
same,TGI,SNB-78 CNS,19.2 µM
same,TGI,TK-10 renal,8.07 µM
same,TGI,SNB-19 CNS,37.7 µM
same,TGI,LXFL 529 NSCLC,2.67 µM
same,TGI,SF-295 CNS,28.9 µM
same,TGI,COLO 205 colon,3.34 µM
same,TGI,HCT-15 colon,4.16 µM
same,TGI,M19-MEL melanoma,9.19 µM
same,TGI,HOP-92 NSCLC,4.04 µM
same,TGI,KM20L2 colon,12.8 µM
same,TGI,OVCAR-8 ovarian,14.4 µM
same,TGI,A549 NSCLC,24 µM
same,TGI,RXF-631 renal,13.7 µM
same,TGI,HOP-18 NSCLC,16.9 µM
same,TGI,CAKI-1 renal,5.47 µM
same,TGI,UO-31 renal,8.41 µM
same,TGI,NCI-H460 lung,9.5 µM
same,TGI,XF 498 CNS,3.4 µM
same,TGI,EKVX NSCLC,26.3 µM
same,TGI,786-0 renal,3.66 µM
same,TGI,SW-620 colon,3.69 µM
same,TGI,NCI-H226 lung,8.21 µM
same,TGI,SK-OV-3 ovarian,33.3 µM
same,TGI,UACC-62 melanoma,3.74 µM
same,TGI,MALME-3M melanoma,4.08 µM
same,TGI,A498 renal,24.3 µM
same,TGI,K-562 leukemia,12.9 µM
same,TGI,LOX IMVI melanoma,2.69 µM
same,TGI,PC-3 prostate,7.17 µM
same,TGI,SF-268 CNS,7.4 µM
same,TGI,HT29 colon,4.83 µM
CCOP(=O)(OCC)C1=NC=CC=CC1n1c(-c2ccccc2)nn(CC)c1=O (stereo unspecified),TGI,KM12 colon,> 100 µM
same,TGI,SR leukemia,> 100 µM
same,TGI,DMS 114 small cell lung,> 100 µM
same,TGI,SK-MEL-28 melanoma,> 100 µM
same,TGI,SN12C renal,> 100 µM
same,TGI,HCT-116 colon,> 100 µM
same,TGI,HOP-62 NSCLC,> 100 µM
same,TGI,SF-539 CNS,> 100 µM
same,TGI,RXF 393 renal,> 100 µM
same,TGI,MOLT-4 leukemia,> 100 µM
same,TGI,SK-MEL-5 melanoma,> 100 µM
same,TGI,IGROV1 ovarian,> 100 µM
same,TGI,ACHN renal,> 100 µM
same,TGI,HL-60(TB) leukemia,> 100 µM
same,TGI,UACC-257 melanoma,> 100 µM
same,TGI,SK-MEL-2 melanoma,> 100 µM
same,TGI,OVCAR-3 ovarian,> 100 µM
same,TGI,NCI-H522 lung,> 100 µM
same,TGI,HCC-2998 colon,> 100 µM
same,TGI,RPMI-8226 leukemia,> 100 µM
same,TGI,U251 CNS,> 100 µM
same,TGI,CCRF-CEM leukemia,> 100 µM
same,TGI,DMS 273 small cell lung,> 100 µM
same,TGI,NCI-H23 lung,> 100 µM
same,TGI,DLD-1 colon,> 100 µM
same,TGI,TK-10 renal,> 100 µM
same,TGI,SNB-19 CNS,> 100 µM
same,TGI,LXFL 529 NSCLC,> 100 µM
same,TGI,SF-295 CNS,> 100 µM
same,TGI,COLO 205 colon,> 100 µM
same,TGI,HCT-15 colon,> 100 µM
same,TGI,M19-MEL melanoma,> 100 µM
same,TGI,HOP-92 NSCLC,> 100 µM
same,TGI,KM20L2 colon,> 100 µM
same,TGI,OVCAR-8 ovarian,> 100 µM
same,TGI,A549 NSCLC,> 100 µM
same,TGI,RXF-631 renal,> 100 µM
same,TGI,HOP-18 NSCLC,> 100 µM
same,TGI,CAKI-1 renal,> 100 µM
same,TGI,NCI-H460 lung,> 100 µM
same,TGI,EKVX NSCLC,> 100 µM
same,TGI,786-0 renal,> 100 µM
same,TGI,SW-620 colon,> 100 µM
same,TGI,NCI-H226 lung,> 100 µM
same,TGI,SK-OV-3 ovarian,> 100 µM
same,TGI,UACC-62 melanoma,> 100 µM
same,TGI,MALME-3M melanoma,> 100 µM
same,TGI,LOX IMVI melanoma,> 100 µM
same,TGI,SF-268 CNS,> 100 µM
same,TGI,HT29 colon,> 100 µM
CC(C)CN(CC(C)C)C(=O)C1CCCC[C@@H]1C(=O)O (stereo partly specified),TGI,M14 melanoma,> 100 µM
same,TGI,KM12 colon,> 100 µM
same,TGI,SR leukemia,> 100 µM
same,TGI,DMS 114 small cell lung,> 100 µM
same,TGI,SNB-75 CNS,> 100 µM
same,TGI,SK-MEL-28 melanoma,> 100 µM
same,TGI,SN12C renal,> 100 µM
same,TGI,HCT-116 colon,> 100 µM
same,TGI,HOP-62 NSCLC,> 100 µM
same,TGI,SF-539 CNS,> 100 µM
same,TGI,MOLT-4 leukemia,> 100 µM
same,TGI,SK-MEL-5 melanoma,> 100 µM
same,TGI,IGROV1 ovarian,> 100 µM
same,TGI,OVCAR-4 ovarian,> 100 µM
same,TGI,ACHN renal,> 100 µM
same,TGI,HL-60(TB) leukemia,> 100 µM
same,TGI,UACC-257 melanoma,> 100 µM
same,TGI,SK-MEL-2 melanoma,> 100 µM
same,TGI,OVCAR-3 ovarian,> 100 µM
same,TGI,NCI-H522 lung,> 100 µM
same,TGI,HCC-2998 colon,> 100 µM
same,TGI,RPMI-8226 leukemia,> 100 µM
same,TGI,U251 CNS,> 100 µM
same,TGI,CCRF-CEM leukemia,> 100 µM
same,TGI,DMS 273 small cell lung,> 100 µM
same,TGI,NCI-H23 lung,> 100 µM
same,TGI,DLD-1 colon,> 100 µM
same,TGI,SNB-78 CNS,> 100 µM
same,TGI,TK-10 renal,> 100 µM
same,TGI,LXFL 529 NSCLC,> 100 µM
same,TGI,SF-295 CNS,> 100 µM
same,TGI,COLO 205 colon,> 100 µM
same,TGI,HCT-15 colon,> 100 µM
same,TGI,M19-MEL melanoma,> 100 µM
same,TGI,HOP-92 NSCLC,> 100 µM
same,TGI,KM20L2 colon,> 100 µM
same,TGI,OVCAR-8 ovarian,> 100 µM
same,TGI,A549 NSCLC,> 100 µM
same,TGI,RXF-631 renal,> 100 µM
same,TGI,HOP-18 NSCLC,> 100 µM
same,TGI,CAKI-1 renal,> 100 µM
same,TGI,UO-31 renal,> 100 µM
same,TGI,NCI-H460 lung,> 100 µM
same,TGI,EKVX NSCLC,> 100 µM
same,TGI,786-0 renal,> 100 µM
same,TGI,SW-620 colon,> 100 µM
same,TGI,NCI-H226 lung,> 100 µM
same,TGI,SK-OV-3 ovarian,> 100 µM
same,TGI,UACC-62 melanoma,> 100 µM
same,TGI,MALME-3M melanoma,> 100 µM
same,TGI,A498 renal,> 100 µM
same,TGI,K-562 leukemia,> 100 µM
same,TGI,LOX IMVI melanoma,> 100 µM
same,TGI,SF-268 CNS,> 100 µM
same,TGI,HT29 colon,> 100 µM
